The data set is described as follows: method code SF, from DOI: 10.1002/em.2850190107, PMID: 1732103.
What is called logP is the decadic logarithm of the partition coefficient of the neutral form, usually between octanol and water. In turn, `Nc1ccccc1-c1ccccc1N` displayed a logP of 1.34.
Under `Nc1cc(Cl)ccc1O` stands 1.81; under `Cc1ccc(N)cc1N`, 0.14; under `Nc1ccc2c3c(cccc13)-c1ccccc1-2`, 4.2.
On to `Nc1cccc2c1Cc1ccccc1-2`, for which the log partition coefficient (logP) came to 3.18.
Under `Nc1ccc2c(c1)Cc1ccccc1-2` stands 3.14; under `COc1ccc(N)c(C)c1`, 1.23; under `Nc1cc2ccccc2c2ccccc12`, 3.56.
Under `Nc1cccc(C(F)(F)F)c1` stands 2.29; under `Nc1ccc2c(c1)Cc1cc(Br)ccc1-2`, 3.92; under `Cc1ccc(N)c(N)c1`, 0.66.
Under `Nc1ccc(Oc2ccc(N)cc2)cc1` stands 1.36; under `COc1cc(-c2ccc(N)c(OC)c2)ccc1N`, 1.81; under `Cc1ccc(C)c(N)c1`, 1.83.
`Nc1cccc2cc3ccccc3cc12`: the logP was found to be 3.69.

For the origin of these results see the SangsterLogP compilation.
